Measured values taken from ChEMBL document CHEMBL1201862, “PubChem BioAssay data set” (2004).
Activity calls are given as the source filed them.

Tests used:
Escherichia coli = experiment: microbe, parasite or virus in culture
Cytochrome P450 2C19 = Cytochrome P450 2C19 (Homo sapiens, UniProt P33261); experiment: Cytochrome panel assay with activity outcomes. Panel member name: p450-cyp2c19 Compounds with AC50 equal or less than 10 uM are considered active; assay type: functional; settings: read-out: AC50
Sequence of Cytochrome P450 2C19 (P33261 whole entry): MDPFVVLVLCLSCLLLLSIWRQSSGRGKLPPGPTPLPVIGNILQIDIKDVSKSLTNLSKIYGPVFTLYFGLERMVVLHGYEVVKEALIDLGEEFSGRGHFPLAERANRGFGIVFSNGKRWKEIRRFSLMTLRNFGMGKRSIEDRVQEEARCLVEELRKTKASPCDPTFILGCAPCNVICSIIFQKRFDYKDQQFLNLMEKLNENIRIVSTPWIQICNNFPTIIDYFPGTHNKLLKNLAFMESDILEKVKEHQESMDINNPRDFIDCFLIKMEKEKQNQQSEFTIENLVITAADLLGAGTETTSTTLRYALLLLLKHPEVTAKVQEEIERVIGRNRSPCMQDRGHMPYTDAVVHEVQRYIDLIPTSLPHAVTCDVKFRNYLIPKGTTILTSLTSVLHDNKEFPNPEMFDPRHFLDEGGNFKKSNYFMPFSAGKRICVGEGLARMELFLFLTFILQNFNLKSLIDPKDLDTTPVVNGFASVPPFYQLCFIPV

Cytochrome P450 2D6 = Cytochrome P450 2D6 (Homo sapiens, UniProt P10635);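 further: CYP2D6 member of a cytochrome P450 panel assay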
Sequence of Cytochrome P450 2D6 (P10635 whole entry): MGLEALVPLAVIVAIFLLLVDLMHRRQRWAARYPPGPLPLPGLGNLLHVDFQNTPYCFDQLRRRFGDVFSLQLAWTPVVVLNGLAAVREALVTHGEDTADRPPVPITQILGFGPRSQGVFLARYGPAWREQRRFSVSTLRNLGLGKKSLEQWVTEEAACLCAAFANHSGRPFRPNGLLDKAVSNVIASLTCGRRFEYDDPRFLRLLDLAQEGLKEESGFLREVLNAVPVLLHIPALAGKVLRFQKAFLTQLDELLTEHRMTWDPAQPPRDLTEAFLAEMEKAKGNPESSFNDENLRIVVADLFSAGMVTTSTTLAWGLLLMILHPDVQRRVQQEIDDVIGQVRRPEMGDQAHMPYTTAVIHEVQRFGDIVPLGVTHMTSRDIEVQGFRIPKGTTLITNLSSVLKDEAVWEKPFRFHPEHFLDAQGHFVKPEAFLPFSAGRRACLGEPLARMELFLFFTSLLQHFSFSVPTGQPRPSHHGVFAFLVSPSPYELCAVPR

Cytochrome P450 3A4 = Cytochrome P450 3A4 (Homo sapiens, UniProt P08684);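 further: CYP3A4 tested as one member of a cytochrome P450 panel screen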
Sequence of Cytochrome P450 3A4 (P08684 whole entry): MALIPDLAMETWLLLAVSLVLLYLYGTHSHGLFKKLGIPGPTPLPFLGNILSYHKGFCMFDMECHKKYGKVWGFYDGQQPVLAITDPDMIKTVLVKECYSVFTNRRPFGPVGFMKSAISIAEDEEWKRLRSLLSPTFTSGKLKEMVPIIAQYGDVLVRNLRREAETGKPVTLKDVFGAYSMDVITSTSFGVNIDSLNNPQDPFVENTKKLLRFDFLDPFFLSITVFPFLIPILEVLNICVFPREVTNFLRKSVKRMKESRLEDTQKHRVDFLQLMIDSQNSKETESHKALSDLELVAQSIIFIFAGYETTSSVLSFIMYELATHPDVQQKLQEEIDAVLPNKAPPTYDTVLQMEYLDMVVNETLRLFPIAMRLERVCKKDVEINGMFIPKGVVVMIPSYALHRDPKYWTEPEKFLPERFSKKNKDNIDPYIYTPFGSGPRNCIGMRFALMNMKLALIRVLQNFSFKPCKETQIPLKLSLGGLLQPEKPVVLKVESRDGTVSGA

[1] = target: T1, High affinity choline transporter 1 (Homo sapiens, UniProt Q9GZV3); experiment: CHT inhibitors, dose response, cell-based, 5-point CRC, membrane potential dye (AID 504840); assay type: functional
T1 sequence (Q9GZV3 whole entry): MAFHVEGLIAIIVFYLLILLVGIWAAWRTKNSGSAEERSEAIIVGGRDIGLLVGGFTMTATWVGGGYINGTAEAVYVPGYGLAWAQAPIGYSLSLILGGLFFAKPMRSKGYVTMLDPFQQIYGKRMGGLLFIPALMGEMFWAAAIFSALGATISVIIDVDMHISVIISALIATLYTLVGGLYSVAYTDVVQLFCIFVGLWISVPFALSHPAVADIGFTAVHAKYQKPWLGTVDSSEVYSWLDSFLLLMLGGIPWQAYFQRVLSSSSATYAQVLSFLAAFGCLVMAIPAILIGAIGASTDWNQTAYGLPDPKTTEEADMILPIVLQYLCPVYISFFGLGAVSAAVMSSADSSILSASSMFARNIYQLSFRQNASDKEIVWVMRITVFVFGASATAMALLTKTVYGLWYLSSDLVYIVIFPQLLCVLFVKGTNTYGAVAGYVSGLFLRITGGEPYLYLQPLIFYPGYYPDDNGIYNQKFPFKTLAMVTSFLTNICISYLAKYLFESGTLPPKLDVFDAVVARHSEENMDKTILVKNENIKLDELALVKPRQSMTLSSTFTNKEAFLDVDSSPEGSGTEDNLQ

Cytochrome P450 2C9 = Cytochrome P450 2C9 (Homo sapiens, UniProt P11712)
Sequence of Cytochrome P450 2C9 (P11712 whole entry): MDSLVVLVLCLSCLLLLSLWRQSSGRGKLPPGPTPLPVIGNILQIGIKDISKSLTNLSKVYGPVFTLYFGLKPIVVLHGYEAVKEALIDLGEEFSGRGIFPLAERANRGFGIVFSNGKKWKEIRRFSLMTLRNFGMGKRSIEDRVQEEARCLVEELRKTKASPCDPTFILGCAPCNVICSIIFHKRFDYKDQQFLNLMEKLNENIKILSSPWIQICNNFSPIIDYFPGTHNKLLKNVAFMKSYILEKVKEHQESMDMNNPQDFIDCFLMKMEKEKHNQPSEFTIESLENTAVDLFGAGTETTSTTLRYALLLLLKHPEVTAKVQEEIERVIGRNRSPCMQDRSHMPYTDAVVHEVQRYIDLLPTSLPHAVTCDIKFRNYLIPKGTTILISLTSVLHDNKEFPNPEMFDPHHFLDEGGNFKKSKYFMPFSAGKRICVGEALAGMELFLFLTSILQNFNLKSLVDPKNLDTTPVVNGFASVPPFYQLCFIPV

[2] = target: Glyceraldehyde-3-phosphate dehydrogenase (Homo sapiens, UniProt P04406)
Sequence of Glyceraldehyde-3-phosphate dehydrogenase (P04406 whole entry): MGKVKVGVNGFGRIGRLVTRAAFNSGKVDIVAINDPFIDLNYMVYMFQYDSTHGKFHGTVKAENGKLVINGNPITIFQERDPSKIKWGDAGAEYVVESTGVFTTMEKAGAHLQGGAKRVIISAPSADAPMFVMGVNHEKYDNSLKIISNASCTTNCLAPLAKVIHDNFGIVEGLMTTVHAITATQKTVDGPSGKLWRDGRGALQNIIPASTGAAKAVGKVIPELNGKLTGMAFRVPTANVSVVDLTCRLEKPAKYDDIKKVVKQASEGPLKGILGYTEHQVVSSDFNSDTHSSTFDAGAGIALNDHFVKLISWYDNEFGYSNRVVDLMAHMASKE

[3] = target: T2, Alkaline phosphatase, tissue-nonspecific isozyme (Homo sapiens, UniProt P05186); experiment: human TNAP enzyme inhibitors, SAR follow-up, biochemical, luminescent, dose response (AID 1056)
T2 sequence (P05186 whole entry): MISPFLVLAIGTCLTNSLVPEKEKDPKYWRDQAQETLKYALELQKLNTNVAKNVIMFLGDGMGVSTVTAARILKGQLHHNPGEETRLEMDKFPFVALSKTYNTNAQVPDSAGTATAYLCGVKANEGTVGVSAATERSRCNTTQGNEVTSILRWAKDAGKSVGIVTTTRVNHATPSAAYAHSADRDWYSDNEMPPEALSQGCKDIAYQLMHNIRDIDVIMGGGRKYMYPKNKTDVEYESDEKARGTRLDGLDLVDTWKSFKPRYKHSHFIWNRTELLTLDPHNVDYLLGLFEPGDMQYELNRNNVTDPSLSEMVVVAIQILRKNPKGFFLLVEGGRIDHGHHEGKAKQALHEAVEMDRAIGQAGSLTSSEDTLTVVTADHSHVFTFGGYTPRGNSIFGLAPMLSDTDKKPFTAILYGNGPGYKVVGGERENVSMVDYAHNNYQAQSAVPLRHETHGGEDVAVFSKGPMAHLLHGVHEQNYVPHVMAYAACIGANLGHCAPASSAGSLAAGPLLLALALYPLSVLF

Caspase-3 = target: T3, Caspase-3 (Homo sapiens, UniProt P42574); assay type: functional;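 further: Dose-response selectivity test against caspase-3 for candidate inhibitors of sentrin-specific proteases (SENPs)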
T3 sequence (P42574 whole entry): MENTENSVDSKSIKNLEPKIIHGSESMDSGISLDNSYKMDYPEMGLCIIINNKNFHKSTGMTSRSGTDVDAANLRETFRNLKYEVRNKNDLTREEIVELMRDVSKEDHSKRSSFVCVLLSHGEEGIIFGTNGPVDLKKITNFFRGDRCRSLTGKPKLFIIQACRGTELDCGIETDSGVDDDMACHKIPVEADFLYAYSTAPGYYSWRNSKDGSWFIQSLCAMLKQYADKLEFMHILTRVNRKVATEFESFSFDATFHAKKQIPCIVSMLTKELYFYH

[4] = target: T4, Sentrin-specific protease 7 (Homo sapiens, UniProt Q9BQF6); assay type: functional;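 further: Luminescence-based dose-response confirmation of ultra-high-throughput screening hits, measuring inhibition of SENP7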
T4 sequence (Q9BQF6 whole entry): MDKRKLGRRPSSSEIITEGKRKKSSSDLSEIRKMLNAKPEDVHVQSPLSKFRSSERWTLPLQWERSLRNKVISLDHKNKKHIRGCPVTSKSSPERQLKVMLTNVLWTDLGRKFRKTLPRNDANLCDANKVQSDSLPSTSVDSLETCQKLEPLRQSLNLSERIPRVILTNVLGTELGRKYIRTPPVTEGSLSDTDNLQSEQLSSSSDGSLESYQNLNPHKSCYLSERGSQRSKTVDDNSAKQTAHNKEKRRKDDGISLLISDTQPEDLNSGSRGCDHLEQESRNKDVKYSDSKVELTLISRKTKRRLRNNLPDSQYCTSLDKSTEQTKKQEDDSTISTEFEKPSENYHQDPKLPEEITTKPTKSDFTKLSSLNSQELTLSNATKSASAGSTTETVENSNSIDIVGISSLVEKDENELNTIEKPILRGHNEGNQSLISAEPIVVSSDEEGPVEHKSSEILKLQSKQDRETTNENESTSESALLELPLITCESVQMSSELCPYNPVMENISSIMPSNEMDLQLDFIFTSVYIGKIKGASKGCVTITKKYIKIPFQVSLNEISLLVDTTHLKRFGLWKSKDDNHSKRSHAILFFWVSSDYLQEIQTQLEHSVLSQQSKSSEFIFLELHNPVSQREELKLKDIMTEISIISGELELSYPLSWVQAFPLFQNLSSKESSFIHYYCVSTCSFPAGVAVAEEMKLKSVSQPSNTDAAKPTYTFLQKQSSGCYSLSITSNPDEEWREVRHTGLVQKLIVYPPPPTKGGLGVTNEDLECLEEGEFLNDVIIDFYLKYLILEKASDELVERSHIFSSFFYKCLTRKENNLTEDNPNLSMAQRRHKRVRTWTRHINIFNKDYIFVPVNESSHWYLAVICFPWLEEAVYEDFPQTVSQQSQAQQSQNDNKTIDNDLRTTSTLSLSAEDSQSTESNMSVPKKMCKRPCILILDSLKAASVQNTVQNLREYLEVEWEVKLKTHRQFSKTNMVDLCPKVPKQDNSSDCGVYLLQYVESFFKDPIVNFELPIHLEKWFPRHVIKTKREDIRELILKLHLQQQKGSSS

[5] = target: T5, Sentrin-specific protease 6 (Homo sapiens, UniProt Q9GZR1); assay type: functional;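 further: Luminescence-based dose-response confirmatory assay of SENP6 inhibition, following up an ultra-high-throughput screen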
T5 sequence (Q9GZR1 whole entry): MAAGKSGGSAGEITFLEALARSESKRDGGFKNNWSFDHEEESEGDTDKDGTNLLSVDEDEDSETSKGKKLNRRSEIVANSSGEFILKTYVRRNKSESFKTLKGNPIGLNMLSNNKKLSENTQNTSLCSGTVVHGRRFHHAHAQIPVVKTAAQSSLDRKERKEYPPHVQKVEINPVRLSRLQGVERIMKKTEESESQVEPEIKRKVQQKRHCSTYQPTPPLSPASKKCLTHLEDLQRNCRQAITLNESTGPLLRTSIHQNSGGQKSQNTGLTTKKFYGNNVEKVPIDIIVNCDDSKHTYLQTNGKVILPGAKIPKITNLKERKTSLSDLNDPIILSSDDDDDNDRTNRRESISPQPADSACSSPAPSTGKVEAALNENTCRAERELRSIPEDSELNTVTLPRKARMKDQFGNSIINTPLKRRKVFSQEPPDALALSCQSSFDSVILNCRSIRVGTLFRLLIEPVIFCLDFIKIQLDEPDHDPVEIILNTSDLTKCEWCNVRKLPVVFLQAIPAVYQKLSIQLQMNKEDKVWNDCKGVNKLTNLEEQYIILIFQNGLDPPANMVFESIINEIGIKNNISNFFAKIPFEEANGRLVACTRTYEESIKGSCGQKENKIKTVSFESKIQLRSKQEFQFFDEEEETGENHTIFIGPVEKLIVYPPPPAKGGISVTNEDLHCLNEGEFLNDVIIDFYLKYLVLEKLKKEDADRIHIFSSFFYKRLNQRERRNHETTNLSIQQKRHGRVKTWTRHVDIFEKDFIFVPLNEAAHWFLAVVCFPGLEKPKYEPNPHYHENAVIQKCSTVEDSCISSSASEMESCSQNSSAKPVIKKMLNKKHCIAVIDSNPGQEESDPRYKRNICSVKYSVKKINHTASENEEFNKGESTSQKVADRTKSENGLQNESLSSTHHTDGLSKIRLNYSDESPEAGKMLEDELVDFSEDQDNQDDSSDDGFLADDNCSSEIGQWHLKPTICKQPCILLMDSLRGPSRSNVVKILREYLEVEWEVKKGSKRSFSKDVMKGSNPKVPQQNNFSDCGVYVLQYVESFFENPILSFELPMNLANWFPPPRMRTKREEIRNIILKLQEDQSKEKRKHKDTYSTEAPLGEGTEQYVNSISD

[6] = target: T6, Sentrin-specific protease 8 (Homo sapiens, UniProt Q96LD8); assay type: functional;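 further: luminescence read-out of SENP8 inhibition, dose-response confirmation following an ultra-high-throughput screen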
T6 sequence (Q96LD8 whole entry): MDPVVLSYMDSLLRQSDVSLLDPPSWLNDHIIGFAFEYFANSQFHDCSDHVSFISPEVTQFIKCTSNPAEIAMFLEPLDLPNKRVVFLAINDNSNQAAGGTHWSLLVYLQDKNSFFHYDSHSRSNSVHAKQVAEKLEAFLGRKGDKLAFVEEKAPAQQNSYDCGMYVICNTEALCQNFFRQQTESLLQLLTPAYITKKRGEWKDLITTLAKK

[7] = target: Alkaline phosphatase, placental type (Homo sapiens, UniProt P05187); experiment: PLAP enzyme inhibitors, confirmation, biochemical, luminescence (AID 1512); assay type: functional
Sequence of Alkaline phosphatase, placental type (P05187 whole entry): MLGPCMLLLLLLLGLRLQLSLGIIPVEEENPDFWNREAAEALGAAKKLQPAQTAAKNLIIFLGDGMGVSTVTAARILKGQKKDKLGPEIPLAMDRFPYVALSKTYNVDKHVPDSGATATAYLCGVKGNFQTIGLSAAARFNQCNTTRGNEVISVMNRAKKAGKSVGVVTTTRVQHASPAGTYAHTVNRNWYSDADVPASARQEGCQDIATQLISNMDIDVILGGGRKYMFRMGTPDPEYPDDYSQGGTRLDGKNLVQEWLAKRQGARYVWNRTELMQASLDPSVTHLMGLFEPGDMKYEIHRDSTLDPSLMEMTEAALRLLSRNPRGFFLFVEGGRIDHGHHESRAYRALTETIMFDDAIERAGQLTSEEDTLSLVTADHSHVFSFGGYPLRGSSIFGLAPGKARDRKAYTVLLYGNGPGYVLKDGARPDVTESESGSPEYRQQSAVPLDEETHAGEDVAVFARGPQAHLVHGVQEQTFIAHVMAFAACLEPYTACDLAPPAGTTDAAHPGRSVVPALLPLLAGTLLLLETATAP

[8] = target: T7, Microphthalmia-associated transcription factor (Homo sapiens, UniProt O75030); experiment: TRPM1 promoter luciferase signal decrease, dose response, MITF inhibitor project, cell-based, SK-MEL-5, cherry-picked, set 3 (AID 493073); assay type: functional
T7 sequence (O75030 whole entry): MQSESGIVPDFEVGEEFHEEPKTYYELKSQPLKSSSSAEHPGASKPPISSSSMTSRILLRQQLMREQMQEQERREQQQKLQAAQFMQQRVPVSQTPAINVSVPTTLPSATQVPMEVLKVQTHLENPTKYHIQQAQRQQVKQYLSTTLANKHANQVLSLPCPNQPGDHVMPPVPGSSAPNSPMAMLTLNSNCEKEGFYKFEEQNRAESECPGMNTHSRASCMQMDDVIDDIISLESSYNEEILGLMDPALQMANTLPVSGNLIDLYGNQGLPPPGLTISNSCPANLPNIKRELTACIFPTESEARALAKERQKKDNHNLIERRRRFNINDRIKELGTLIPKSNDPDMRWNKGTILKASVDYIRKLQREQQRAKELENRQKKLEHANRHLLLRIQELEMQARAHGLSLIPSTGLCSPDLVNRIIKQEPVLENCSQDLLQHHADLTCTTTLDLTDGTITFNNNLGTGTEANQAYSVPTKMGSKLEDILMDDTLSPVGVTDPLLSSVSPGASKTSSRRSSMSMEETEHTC

Compound: Nc1nc(=O)n([C@H]2C[C@H](O)[C@@H](CO)O2)cc1F
- AC50 (Escherichia coli): 33.8 µM (active)

Compound: CCOC(=O)N1CCN(C(=O)c2ccc3nc(N4CCC(C)CC4)sc3c2)CC1
- AC50 (Cytochrome P450 2C19): 11.2 µM (inconclusive)
- AC50 (Cytochrome P450 2D6): 28.2 µM (inconclusive)
- AC50 (Cytochrome P450 3A4): inconclusive

Compound: Cc1cc(NS(=O)(=O)c2ccc(NC(=O)COc3c(C)cc(Br)cc3C)cc2)no1
- IC50 [1]: 13.2 µM (active)

Compound: COc1ccc(NC(=O)CCNS(=O)(=O)c2ccc3c(c2)c(=O)n(C)c(=O)n3C)cc1
- AC50 (Cytochrome P450 3A4): inconclusive
- AC50 (Cytochrome P450 2C9): inconclusive

Compound: O=S(=O)(Nc1cccnc1)c1cc(Cl)ccc1F
- IC50 [2]: > 100 µM (not active)
- IC50 [3]: 46.5 µM (active)

Compound: CC1=NN(C(N)=S)C(=O)C1N=Nc1ccccc1 (configuration not stated)
- IC50 (Caspase-3): 3.7 µM (active)
- IC50 [4]: 5.13 µM (active)
- IC50 [5]: 21.6 µM (active)
- IC50 [6]: > 100 µM (inactive)

Compound: CCOC(=O)c1sc(NC(=O)c2ccc(C)s2)cc1C
- IC50 (Caspase-3): 20.3 µM (active)
- IC50 [4]: 4.46 µM (active)
- IC50 [5]: > 100 µM (inactive)
- IC50 [6]: > 100 µM (inactive)

Compound: C/C=C\C(=O)N(CC)c1ccccc1C
- AC50 (Cytochrome P450 3A4): inconclusive

Compound: Cc1cccc(C)c1OCc1nnc2c3cnn(-c4ccccc4)c3ncn12
- IC50 [2]: > 100 µM (not active)
- IC50 [7]: > 100 µM (inactive)
- IC50 [3]: > 100 µM (inactive)

Compound: CCOC(=O)N1CCN(C(=O)CCCn2c(=S)[nH]c3ccsc3c2=O)CC1
- IC50 [1]: 12.3 µM (active)

Compound: O=C(CSc1nc2ccccc2s1)c1ccc(O)c(O)c1
- IC50 [7]: 3.42 µM (active)
- IC50 [3]: 3.03 µM (active)

Compound: NC(=O)c1c(NC(=O)C(=O)N2CCOCC2)sc2c1CCC2
- AC50 (Escherichia coli): 23.9 µM (active)

Compound: COC(=O)c1cc(C(=O)c2ccc(Cl)cc2Cl)cn1C
- AC50 (Cytochrome P450 3A4): inconclusive
- AC50 (Cytochrome P450 2C9): inconclusive

Compound: O=S(=O)(Nc1ccccc1Br)c1cnc2ccccc2c1
- IC50 [2]: > 10 µM (inconclusive)
- IC50 [3]: > 10 µM (inactive)

Compound: CN(C(=O)/C=C/c1ccc([N+](=O)[O-])s1)c1ccccc1
- AC50 [8]: 9.11 µM (active)

Compound: Nc1ccccc1C(=O)NCC1(c2ccccc2)CCCC1
- AC50 (Escherichia coli): 113 µM (active)

Compound: CCOC(=O)CCc1ccc(NC(=O)/C=C/c2ccc([N+](=O)[O-])o2)cc1
- AC50 [8]: 6.83 µM (active)

Compound: CC(C)c1ccc(NC(=O)CSc2nc(=O)n(CCCN3CCOCC3)c3c2CCC3)cc1
- IC50 [1]: 13.8 µM (active)

Compound: CCCCN(C)C(=O)NC1(C(F)(F)F)Oc2ccccc2O1
- IC50 [7]: > 100 µM (inactive)
- IC50 [3]: > 100 µM (inactive)

Compound: CCOC(=O)Cn1nc(C)n(-c2ccc(C)cc2)c1=O
- AC50 (Cytochrome P450 2C19): 28.2 µM (inconclusive)
- AC50 (Cytochrome P450 3A4): inconclusive
